Like-named read-outs stand apart in the source and are kept apart here.
Experiments:
[1] = molecular target: T1, SCD1 (Homo sapiens, UniProt O00767); conditions: cited from earlier work
T1 sequence (O00767 1-359): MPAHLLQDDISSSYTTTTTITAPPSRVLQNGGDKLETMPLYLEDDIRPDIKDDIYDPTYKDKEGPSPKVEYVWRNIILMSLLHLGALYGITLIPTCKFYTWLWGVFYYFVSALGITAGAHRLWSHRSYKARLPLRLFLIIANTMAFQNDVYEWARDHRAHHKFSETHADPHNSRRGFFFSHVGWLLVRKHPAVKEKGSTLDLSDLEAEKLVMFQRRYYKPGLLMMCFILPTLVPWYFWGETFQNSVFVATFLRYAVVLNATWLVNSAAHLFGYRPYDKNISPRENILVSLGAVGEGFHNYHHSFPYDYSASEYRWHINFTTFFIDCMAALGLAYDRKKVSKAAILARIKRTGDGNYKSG

[2] = molecular target: T1, SCD1; conditions: cited from earlier work; for IC50: human SCD1
[3] = molecular target: T2, rat SCD1 (Rattus norvegicus, UniProt P07308); conditions: cited from earlier work
T2 sequence (P07308 1-358): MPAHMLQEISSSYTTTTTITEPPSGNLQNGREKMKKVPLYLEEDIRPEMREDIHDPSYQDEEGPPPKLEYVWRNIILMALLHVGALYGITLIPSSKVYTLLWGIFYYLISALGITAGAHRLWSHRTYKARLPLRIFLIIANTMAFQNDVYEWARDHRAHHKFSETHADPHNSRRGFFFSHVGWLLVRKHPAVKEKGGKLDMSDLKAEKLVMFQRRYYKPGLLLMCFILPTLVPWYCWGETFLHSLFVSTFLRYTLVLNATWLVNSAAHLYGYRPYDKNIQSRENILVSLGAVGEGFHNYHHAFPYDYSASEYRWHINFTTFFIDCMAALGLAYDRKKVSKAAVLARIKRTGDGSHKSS

[4] = molecular target: T3, Δ6 desaturase (Homo sapiens, UniProt O95864); conditions: cited from earlier work
T3 sequence (O95864 1-444): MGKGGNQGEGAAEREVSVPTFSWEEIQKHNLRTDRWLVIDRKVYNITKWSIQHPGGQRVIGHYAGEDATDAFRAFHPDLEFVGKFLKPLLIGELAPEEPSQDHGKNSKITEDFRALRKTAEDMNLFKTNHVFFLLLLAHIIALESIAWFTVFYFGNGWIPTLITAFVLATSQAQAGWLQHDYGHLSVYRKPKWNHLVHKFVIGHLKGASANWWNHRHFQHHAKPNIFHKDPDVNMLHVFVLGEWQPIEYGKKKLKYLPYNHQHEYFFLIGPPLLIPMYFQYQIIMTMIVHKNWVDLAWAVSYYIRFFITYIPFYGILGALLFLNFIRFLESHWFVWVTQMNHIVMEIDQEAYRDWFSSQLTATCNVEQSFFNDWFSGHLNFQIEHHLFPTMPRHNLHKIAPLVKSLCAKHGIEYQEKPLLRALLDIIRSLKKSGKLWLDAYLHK

[5] = 30 min incubation; cited from earlier work
[6] = 30 min incubation; cited from earlier work; remark: listed apart in the source
[7] = molecular target: Δ5 desaturase (Homo sapiens, UniProt O60427); conditions: cited from earlier work
[8] = test system: total fatty acid synthesis; test: FGF1-stimulated lipid synthesis, [^14C]acetate, RT112 cells; format: cell-based, human
Method: FIG. 8. FGFR3 signalling promotes the accumulation of matured SREBP1 and lipogenesis via PI3K-mTORC1 pathway. (A) Pharmacological inhibition of FGFR3 signalling. RT112 cells were serum starved for 20 hr, then treated with rapamycin (50 nM), Ly294002 (Ly294, 20 μM) and PD325901(PD901, 100 nM) for 2 hr, followed by stimulation with 30 ng/ml FGF1 plus 10 μg/mL of heparin for 10 min. Cell lysates were subjected to immunoblot analyses with indicated antibodies. Note the increased phosphorylation of MEK upon PD901 treatment, presumably due to a relief of feedback inhibition. (B) PI3K-mTORC1 and MEK inhibitors block FGF1 induction of SREBP1 and SCD1 in RT112 cells. RT112 cells were serum starved for 20 hr, treated with kinase inhibitors for 4 hr, followed by 24 hr incubation in medium supplemented with 30 ng/ml FGF1. Cell lysates were immunoblotted to detect SREBP1 maturation, SCD1 and FASN expression. […] The lipid fraction was extracted and [^14C]acetate incorporated into lipids was measured by scintillation counting. […]
Lipogenic activity was determined by monitoring the incorporation of [1,2-^14C] acetate (Perkin Elmer, Waltham, Mass.) into fatty acids as reported (39). […] The fatty acids fractions were collected, dried under a steam of nitrogen, and analyzed by scintillation counting. The [^14C] radioactivity was normalized to sample protein content. […]

[9] = test system: phosphorylation of AKT, S6, and MAPK; test: Western blot, FGF1-stimulated RT112 cells; format: cell-based, human; conditions: rapamycin 50 nM, Ly294002 20 μM, PD325901 100 nM
Method: FIG. 8. FGFR3 signalling promotes the accumulation of matured SREBP1 and lipogenesis via PI3K-mTORC1 pathway. (A) Pharmacological inhibition of FGFR3 signalling. RT112 cells were serum starved for 20 hr, then treated with rapamycin (50 nM), Ly294002 (Ly294, 20 μM) and PD325901(PD901, 100 nM) for 2 hr, followed by stimulation with 30 ng/ml FGF1 plus 10 μg/mL of heparin for 10 min. Cell lysates were subjected to immunoblot analyses with indicated antibodies. Note the increased phosphorylation of MEK upon PD901 treatment, presumably due to a relief of feedback inhibition. (B) PI3K-mTORC1 and MEK inhibitors block FGF1 induction of SREBP1 and SCD1 in RT112 cells. RT112 cells were serum starved for 20 hr, treated with kinase inhibitors for 4 hr, followed by 24 hr incubation in medium supplemented with 30 ng/ml FGF1. Cell lysates were immunoblotted to detect SREBP1 maturation, SCD1 and FASN expression. (C) PI3K-mTORC1 and MEK inhibitors block FGF1-stimulated lipid synthesis. RT112 cells were treated the same as described in (B). [^14C]acetate was added for the final 4 hr incubation. The lipid fraction was extracted and [^14C]acetate incorporated into lipids was measured by scintillation counting. Data were normalized to sample protein content, and presented as mean+/−SD. […]

[10] = test system: SREBP1 maturation, SCD1 and FASN expression; test: Western blot, FGF1-treated RT112 cells; format: cell-based, human
Method: FIG. 8. FGFR3 signalling promotes the accumulation of matured SREBP1 and lipogenesis via PI3K-mTORC1 pathway. (A) Pharmacological inhibition of FGFR3 signalling. RT112 cells were serum starved for 20 hr, then treated with rapamycin (50 nM), Ly294002 (Ly294, 20 μM) and PD325901(PD901, 100 nM) for 2 hr, followed by stimulation with 30 ng/ml FGF1 plus 10 μg/mL of heparin for 10 min. Cell lysates were subjected to immunoblot analyses with indicated antibodies. Note the increased phosphorylation of MEK upon PD901 treatment, presumably due to a relief of feedback inhibition. (B) PI3K-mTORC1 and MEK inhibitors block FGF1 induction of SREBP1 and SCD1 in RT112 cells. RT112 cells were serum starved for 20 hr, treated with kinase inhibitors for 4 hr, followed by 24 hr incubation in medium supplemented with 30 ng/ml FGF1. Cell lysates were immunoblotted to detect SREBP1 maturation, SCD1 and FASN expression. (C) PI3K-mTORC1 and MEK inhibitors block FGF1-stimulated lipid synthesis. RT112 cells were treated the same as described in (B). [^14C]acetate was added for the final 4 hr incubation. The lipid fraction was extracted and [^14C]acetate incorporated into lipids was measured by scintillation counting. Data were normalized to sample protein content, and presented as mean+/−SD.
(§1) It's worth noting that in Ca129 bladder cancer cells, rapamycin and Ly294002 blocked the accumulation of active SREBP1 and the expression of SCD1, consistent with the results observed in RT112 cells (FIG. 9). […] Thus, in bladder cancer cells, FGFR3 mainly signals through PI3K-mTORC1 axis to promote SREBP1 cleavage and activation, resulting in elevated de novo lipogenesis and fatty acid desaturation. The contribution of MEK-MAPK pathway may be cell line- and/or context-dependent.

[11] = test system: matured SREBP1 and SCD1 expression; test: Western blot, FGF1-treated Ca129 cells; format: cell-based, human
Method: FIG. 9. FGFR3 signalling promotes the accumulation of matured SREBP1 and SCD1 expression via PI3K-mTORC1 pathway but not MEK-MAPK pathway in Ca129 cells. Ca129 cells were serum starved for 20 hr, treated for 4 hr with vehicle (DMSO), 50 nM rapamycin (Rapa), Ly294002 (Ly294, 20 μM) and PD325901(PD901, 100 nM). Then cells were cultured in medium supplemented with 30 ng/ml FGF1 for 24 hr. Cell lysates were analyzed by Western blot.
as §1

[12] = test system: HCT-15; test: Cell viability, CellTiter-Glo; format: cell-based, human; conditions: for IC50: Homo sapiens, HCT-15, 72 h
Method: (§2) For SCD1 small molecule inhibitor experiment, cells were treated with indicated concentration of A37062 (Abbott compound 4c) or G02447171.1 (Daichii compound 24) in DMSO or DMSO alone for 48-72 hr. Cell viability was assessed with CellTiter-Glo at 72 hr post treatment (Promega). Activation of caspase 3 and caspase 7 was measured with the Caspase-Glo 3/7 assay kit at 48 hr after treatment (Promega). Values are presented as mean+/−SD of quadruplets. Data are representative of at least three independent experiments.
(§3) To investigate the effect of SCD1 small molecule antagonists on cancer cell lines were treated with serially diluted A37062 for 72 hr, and […] cell viability was measured by CellTiter-Glo (Promega) as described above.
(§4) To investigate the effect of additional SCD1 small molecule antagonists, HT29 and HCT15 were treated with serially diluted small molecule inhibitors RG1-14 and G02447171 (G7171) for 72 hr, and cell viability was measured by CellTiter-Glo (Promega). The specificity and selectivity of the SCD1 small molecule inhibitors was also evaluated.

[13] = test system: HT29; test: Cell viability, CellTiter-Glo; format: cell-based, human; conditions: for IC50: Homo sapiens, HT-29, 72 h
Method: as §2, §3, §4

Δ5 desaturase, sequence (O60427 whole entry, stated change not applied): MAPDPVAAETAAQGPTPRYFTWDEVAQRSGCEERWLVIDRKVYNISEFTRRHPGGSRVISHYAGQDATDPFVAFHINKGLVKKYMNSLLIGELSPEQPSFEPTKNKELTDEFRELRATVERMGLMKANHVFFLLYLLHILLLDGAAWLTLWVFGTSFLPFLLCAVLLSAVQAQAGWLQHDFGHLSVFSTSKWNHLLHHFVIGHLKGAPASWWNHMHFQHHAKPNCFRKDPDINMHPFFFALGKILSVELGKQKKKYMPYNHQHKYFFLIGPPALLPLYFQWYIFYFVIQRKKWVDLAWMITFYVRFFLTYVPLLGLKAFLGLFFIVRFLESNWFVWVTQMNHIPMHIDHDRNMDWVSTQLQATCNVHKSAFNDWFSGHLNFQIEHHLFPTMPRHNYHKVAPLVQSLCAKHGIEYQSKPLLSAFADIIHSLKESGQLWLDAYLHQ

In the case of `Cc1nc(-n2ccc(OCc3ccc(F)cc3)cc2=O)sc1C(=O)NCc1ccc(Cl)nc1` [Compound 18], the IC50 [1] is listed as 50 nM.
In the case of `Cc1nc(-n2ccc3c(O)cccc3c2=O)sc1C(=O)NCc1ccccc1` [Compound 19], the IC50 [1] is given as 30 nM.
For `O=C(NCc1cccnc1)c1sc(N2CCN(Cc3ccc(F)cc3)C2=O)nc1C(F)(F)F` [Compound 21], the IC50 [1] is listed as 42 nM.
In the case of `O=C(NCc1cccnc1)c1sc(N2CCN(Cc3ccc(F)cc3)C2=O)nc1C(F)(F)F` [Compound 23], the IC50 [1] is given as 10 nM.
In the case of `Cc1nnc(-c2ccc(N3CCC(Oc4cc(F)ccc4Cl)CC3)nn2)o1` [Compound 49], the IC50 [2] is listed as 37 nM.
For `COc1ccc(-c2nc3cnc(NCc4ccc(Cl)c(Cl)c4)nc3n(CCNC(C)=O)c2=O)cc1` [Compound 51], the IC50 [3] is listed as 250 nM and the IC50 [2] is listed as 280 nM.
In the case of `COc1ccc(-c2nc3ccc(NCc4ccc(Cl)c(C(F)(F)F)c4)cc3n(CCNC(C)=O)c2=O)cc1` [Compound 54], the “selectivity against Δ6 desaturase” value [4] is given as “selective”, the “stability in RLM” value [5] is given as “greater than 50%” and the “stability in HLM” value [6] is given as “greater than 50%”. The “selectivity against Δ5 desaturase” value [7] was “selective”.
In the case of `O=C1O[C@@H](CO)CN1c1ccc(N2CCC(Oc3ccccc3C(F)(F)F)CC2)nc1` [Compound 67], the “inhibition of human SCD1” value ([2]; at 10 μM) is given as 99%.
In the case of `O=C(NOC[C@H](O)CO)c1ccc(F)c(F)c1Nc1ccc(I)cc1F` [PD325901], the “total fatty acid synthesis stimulated by FGF1” value [8] is reported as “markedly suppressed”, the “FGF1-induced activation of intended target (phosphorylation)” value [9] is reported as “blunted FGF1-induced activation of their intended target” and the FASN expression [10] is reported as “reduced only modestly”. For the same compound, the SCD1 expression [10] was “diminished significantly”, the “basal and FGF1-induced level of the cleaved active SREBP1” value [10] was “substantially reduced” and the “accumulation of active SREBP1” value [11] was “only partially reduced”. For the same compound, the “expression / induction of SCD1” value [11] was “did not have much effect”.
In the case of `O=c1cc(N2CCN(Cc3cc(Cl)cc(Cl)c3O)CC2)nc[nH]1` [RG1], the “cell proliferation, oleate / palmitate supplement” value ([12]; HCT15 cells) is reported as “suppress cell proliferation in a fatty acid desaturation-dependent manner”, the IC50 ([12]; Experiment 1 HCT15, 72 hr) is reported as 5.84 nM and the IC50 ([12]; Experiment 2 HCT15, 72 hr) is reported as 13.4 nM. The “cell proliferation, oleate / palmitate supplement” value ([13]; HT29 cells) was “suppress cell proliferation in a fatty acid desaturation-dependent manner”, the IC50 ([13]; Experiment 1 HT29, 72 hr) was 95.7 nM and the IC50 ([13]; Experiment 2 HT29, 72 hr) was 33.5 nM.

Source: patent publication US9358250B2, “Methods of using SCD1 antagonists” (Genentech, Inc., priority 2011, dated 2016)
